Here are results for 1 compound from patent US10239923B2, “Specific amyloid beta binding peptides and the use of same for treating and diagnosing alzheimer's dementia” (Forschungszentrum Juelich GmbH, priority 2015, dated 2019).

The structures appear in SMILES notation. Square brackets hold non-standard residues; d marks the D form. Peptide text beside a SMILES is read from it.

Series [1] deals with T1, Aβ1-42 monomers versus Aβ1-42 oligomers and fibrils (biotinylated, D-enantiomeric, immobilized) (Homo sapiens, UniProt P05067).
T1 construct: biotinylated, D-enantiomeric Aβ1-42 monomers
T1 sequence (P05067 672-713): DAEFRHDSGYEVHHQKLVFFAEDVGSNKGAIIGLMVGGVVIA
Nature of the series: Monoclonal phage ELISA. In kind it is binding. The text has this: The specificity of the peptide results from the difference in % of the absorption values for the target molecule or the bait (for example A beta monomer) and the normalized absorption values for the competitors (for example A beta oligomers and fibrils) in the monoclonal phage ELISA.
The absorption values then constitute the affinity of individual phage clones for a particular immobilized A beta species. Here, the specificity is not dependent on the strength of the affinity, but instead only on the difference of the affinities between the species. […] The terms “competitors” and “target molecule” or “bait” are defined as specified below.
A method for normalizing the obtained values should therefore be performed. From all absorption values of the individual phage clone in the monoclonal phage ELISA, the values of the phage antibodies tested for cross-reaction can be used as background. This occurs in accordance with the previously immobilized species. The signal values of the phage antibody from the reaction trays with immobilized Aβ1-42 oligomers for this purpose can be removed from the signal values of the individual phage clone from the reaction trays with immobilized Aβ1-42 oligomers. A similar process is then carried out for Aβ1-42 monomers. In this way, a possible background signal of the phage antibody can initially be calculated from the signals of the individual phage clone. […] Only in this way is an equal interpretation of the results particularly in respect of the assessment of the specificity of the individual phage clone possible (see FIG. 2).
The affinity of individual phage clones with respect to the target molecule and the competitors was examined by means of ELISA. For this purpose, all three species were immobilized in biotinylated form on a polystyrene surface at streptavidin bound thereon. Since, during the panning rounds, oligomers and fibrils were added at the same time as competitors, these two species were immobilized in the monoclonal phage ELISA, likewise mixed. […] The streptavidin-coated microtiter plates were pre-washed as specified by the manufacturer. […] For immobilization, 100 μl were used per reaction tray and were incubated for 15 minutes at room temperature. After having washed the entire plate(s) twice with 150 μl 1×TBS per reaction tray, a blocking step with 150 μl 1×TBS/0.1% (v/v) Tween-20/1% (w/v) BSA was performed for an hour at room temperature. Three washing steps with 150 μl 1×TBS/0.1% (v/v) Tween-20 then followed per reaction tray. The amplified individual phage clones were mixed 1:1 with 1× TBS/1% (w/v) BSA. The antibody 6E10 was diluted 1:10,000 in 1×TBS/0.1% (v/v) Tween-20. […] After washing five times with 150 μl 1×TBS/0.1% (v/v) Tween-20 per reaction tray, 200 μl 1×TBS/0.1% (v/v) Tween-20 were placed in each reaction tray, and the plate(s) incubated for one hour at room temperature. The solutions were removed and replaced as follows: In all reaction trays that had been incubated previously with individual phage clone dilutions or the batch without phages, 100 μl of a phage antibody diluted 1:5,000 in 1×TBS/0.1% (v/v) Tween-20 were now added. The enzyme horseradish peroxidase (HRP) was coupled to this antibody and later served for the conversion of a substrate (TMB). […] At the same time, 100 μl of a second antibody diluted 1:1,000 in 1×TBS/0.1% (v/v) Tween-20 were now added to all reaction trays that had been previously incubated with the dilution of the 6E10 antibody, said second antibody being able to identify and bind to the 6E10 antibody originating from mice. This antibody is also HRP-coupled and thus allows a quantification of the binding of the first antibody to the immobilized target molecules or the plastics surface of the reaction tray. After one hour of incubation at room temperature, the plate(s) was/were washed 10 times with 150 μl 1×TBS/0.1% (v/v) Tween-20 per reaction tray. The signal was detected by adding the substrate 3,3′,5,5′-tetramethylbenzidine (TMB). […]
(In general: ELISA stands for enzyme-linked immunosorbent assay.)

Another series deals with Aβ1-42 (Homo sapiens, UniProt P05067). In words: TEM of Aβ1-42 incubated with and without Mosd1. In kind it is biochemical. The settings on record: 10 μM Aβ1-42 with 10 μM Mosd1, 24 hours, room temperature. The text has this:
The scale bars correspond to 0.25 μm.

Another series deals with PC-12 cells. Nature of the series: MTT reduction test, Aβ1-42-induced cell toxicity. In kind it is cell-based. The conditions noted are these: batch containing only Mosd1, 24 hours, 37° C. On the procedure: The samples were placed in the culture medium of the cells and were incubated over 24 hours with the cells at 37° C. The viability of the cells was then determined on the basis of an MTT test. Here, a metabolic reactant was supplied to the cells, which reactant could be converted by metabolically active cells (living cells). Formazan crystals are the product of this conversion and can be dissolved. The coloration of the medium after solubilization corresponds to the conversion rate of the reactant and therefore the viability of the cells. Untreated cells (medium, white chequered pattern) served as living control, and the proportion of vital cells was defined as 100%. The values of the other batches were normalized to this value.

Sequence of Aβ1-42 (P05067 672-713 limits assumed): as the sequence (P05067 672-713) above

With `CSCC[C@@H](NC(=O)[C@@H](Cc1c[nH]cn1)NC(=O)[C@@H](Cc1ccc(O)cc1)NC(=O)[C@@H](CO)NC(=O)[C@H](NC(=O)[C@@H](CC(C)C)NC(=O)[C@@H](Cc1ccc(O)cc1)NC(=O)[C@@H](CO)NC(=O)[C@H](N)Cc1ccc(O)cc1)[C@H](C)O)C(=O)N[C@@H](C(=O)N[C@H](Cc1c[nH]c2ccccc12)C(=O)N[C@H](CCCNC(=N)N)C(N)=O)C(C)C` [Mosd1] (H-[dY][dS][dY][dL][dT][dS][dY][dH][dM][dV][dW][dR]-NH2), the “absorption values (signal strength) for monomeric Aβ1-42” value in series [1] (individual phage clone, absorption at 450 nm) is reported as “highest absorption values for monomeric Aβ1-42 of all tested clones”. Also, the “Difference in signal strength between Aβ1-42 monomers (100%) and Aβ1-42 oligomers and fibrils” value in series [1] (individual phage clones, species immobilized at 320 nM, absorption at 450 nm normalized with 6E10 control, higher = more monomer-specific) was 71.989%. In addition, the “binding preference for monomeric Aβ1-42 over Aβ1-42 oligomers and fibrils or plastics surface” value in series [1] (normalized absorption values at 450 nm) was “greatest difference in the absorption values for monomeric Aβ1-42 and oligomeric or fibrillar Aβ1-42”. Also, the “aggregate morphology in TEM” value on Aβ1-42 is reported as “formation of large, high-molecular aggregates”. The “viability of PC-12 cells, peptide alone” value in the series with PC-12 cells is recorded as “no influence”.
